{"source": "patent US12329753B2", "about": "“Phosphodiesterase inhibitor treatment” (Cyrano Therapeutics, Inc., priority 2008, dated 2025)", "format_in_all_cases": "in vivo, human", "key": {"Hyposmic patients": {"test_system": "Hyposmic patients", "test": "Open label trial of inhalable PDE inhibitor in hyposmic patients (Examples 3, 4)", "conditions": "nasal administration, not more than 500 μg", "description": "Hyposmic patients for whom the etiology of smell loss is not associated with head injury or allergic rhinitis are enrolled in an open label trial of inhalable theophylline. Patients are started at an initial dose of not more than 500 μg formulated as a liquid spray or dry powder to be delivered as a metered dose. Initially only local patients are enrolled so that quicker dose titration is achieved. Groups of 5 patients are started on not more than 500 μg of theophylline and continued for 1 month.\nPatients are tested for improvement in smell acuity using the standard forced choice technique using four odors as described in Example 1. Additionally, subjective measurements of smell function are obtained using a scale from 0-100 as described in Example 1. Blood samples are also drawn to ascertain blood theophylline level to gauge its relationship to the expected recovery of smell.\nHyposmic patients for whom the etiology of smell loss is not associated with head injury or allergic rhinitis are enrolled in an open label trial of an inhalable PDE1 inhibitor. […]"}, "patients with hyposmia [1]": {"test_system": "patients with hyposmia", "test": "Subjective overall smell function response to oral theophylline", "description": "Independently, patients were also required to grade their ability to smell daily on a scale from 0-100, with 0 reflecting no overall smell function over a 24 hour period, 100 reflecting normal overall smell function over this period and numbers between 0-100 reflecting their estimation of their overall ability to smell odors over this period.\n(§1) After determination of hyposmia, patients were treated in an open label, fixed design, controlled open trial. Patients were given an oral extended release theophylline in divided daily doses taken in the middle of breakfast and lunch. All patients were initially given 200 mg of theophylline; changes in this dose were made based upon subjective responses to therapy. If at a subsequent return visit, patients reported ≥5% subjective improvement in overall smell function, they continued on this same dose of theophylline and were reevaluated after four to six months of continued treatment. Results from any subsequent return from these improved patients were not included in any subsequent data report. All subsequent comparisons between treated and untreated patients were made only between those patients continuing in the study compared to their own measurements obtained in the untreated state. If patients reported <5% subjective improvement, their theophylline dose was increased by 200 mg daily and they were scheduled for retesting at the study site after two to four months at this new dosage. For patients that reported <5% improvement, this sequence continued until patients reached 800 mg of theophylline, at which time the study was considered completed.\n(§2) Patients returned for reevaluation after two to four months of treatment. Measurements of blood serum theophylline were measured by a fluorescence polarization assay (Abbott, Chicago, IL). At this time, subjective changes in smell function were measured independently (compared to patient's memory of previous normal smell function monitored by use of the patients' daily measurements) using the scale from −100-0-+100 previously described (vs). After independently recording their subjective responses, smell function was measured for all four odors with DT, RT, ME and H determined without recourse to prior measurements.\nSubjective overall changes in smell acuity were reported by telephone and by FAX or email at two-four month intervals after treatment was initiated using the standardized form in which they measured daily changes in smell acuity using the −100-0-+100 scale as noted above (vs). Using the same criteria noted above, if at their initial two-four month call-in they reported improvement in smell acuity of ≥5%, they continued at 200 mg and returned to the study site at four-six months on this treatment dose. If they reported improvement in smell acuity of <5% their dose of theophylline was increased to 400 mg for an additional two-four months and they then called the study site at the end of this period."}, "patients with hyposmia [2]": {"test_system": "patients with hyposmia", "test": "Hedonic (H) value of odors, -100-0-+100 scale, open trial of oral theophylline", "description": "In addition, each patient graded the hedonic (H) value of each odor presented for these same odor concentrations (from 10^−2M—an absolute odor concentration using a −100-0-+100 scale). […] Results were obtained by calculating the arithmetical sum of each correct recognition response for each odor with respect to its pleasantness, unpleasantness or neutrality. Arithmetic M±SEM were obtained for each treatment group for each odor presented.\nas §1, §2"}, "[3]": {"conditions": "oral 400 mg daily, 2-6 months, all patients (120), mean ± SEM"}, "[4]": {"conditions": "oral 600 mg daily, 2-12 months, all patients (160), mean ± SEM"}, "[5]": {"conditions": "oral 800 mg daily, 2-12 months, all patients (28), mean ± SEM"}, "[6]": {"conditions": "oral 800 mg, Type I hyposmia (12), mean ± SEM"}}, "note": "Marks after values point to notes of the source that are not given here."}
{"smiles": "Cn1c(=O)c2[nH]cnc2n(C)c1=O", "note": "[theophylline]", "values": [{"measurement": "recovery of smell acuity versus oral administration", "setting": "Hyposmic patients", "value": "at least an equivalent recovery of smell acuity"}, {"measurement": "patients improved ≥5% (subjective)", "setting": "patients with hyposmia [1]; oral 200 mg daily, 34 of 199 returning patients", "value": 17.1, "unit": "%"}, {"measurement": "improved patients who considered smell function returned to normal", "setting": "patients with hyposmia [1]; oral 200 mg daily, nine of the 34 improved", "value": 26.5, "unit": "%"}, {"measurement": "patients reporting return to normal", "setting": "patients with hyposmia [1]; oral 200 mg, one of the improved non-returning patients", "value": 14.3, "unit": "%"}, {"measurement": "patients reporting >5% improvement", "setting": "patients with hyposmia [1]; oral 200 mg, seven of the 15 non-returning patients", "value": 46.7, "unit": "%"}, {"measurement": "patients improved ≥5% (subjective)", "setting": "patients with hyposmia [1]; oral 400 mg daily, 35 of 120 patients", "value": 29.2, "unit": "%"}, {"measurement": "improved patients who considered smell function returned to normal", "setting": "patients with hyposmia [1]; oral 400 mg daily, three of the 35 improved", "value": 8.6, "unit": "%"}, {"measurement": "patients who considered smell function returned to normal", "setting": "patients with hyposmia [1]; oral 600 mg daily, 17 of 160 patients", "value": 10.6, "unit": "%"}, {"measurement": "patients improved ≥5% (subjective)", "setting": "patients with hyposmia [1]; oral 600 mg daily, 66 of 160 patients", "value": 41.2, "unit": "%"}, {"measurement": "patients improved ≥5% (subjective)", "setting": "patients with hyposmia [1]; oral 800 mg daily, 15 of 28 patients", "value": 53.6, "unit": "%"}, {"measurement": "patients who considered smell function returned to normal", "setting": "patients with hyposmia [1]; oral 800 mg daily, three patients", "value": 33, "unit": "%"}, {"measurement": "improved patients reporting return to normal", "setting": "patients with hyposmia [1]; oral 200-600 mg, Type III hyposmia, 3 of 5", "value": 60, "unit": "%"}, {"measurement": "improved patients reporting return to normal", "setting": "patients with hyposmia [1]; oral 200-800 mg, Type I hyposmia, 5 of 32", "value": 15.6, "unit": "%"}, {"measurement": "improved patients reporting return to normal", "setting": "patients with hyposmia [1]; oral 200-800 mg, Type II hyposmia, 26 of 129", "value": 20.2, "unit": "%"}, {"measurement": "time course of subjective response", "setting": "patients with hyposmia [1]; oral theophylline", "value": "little or no improvement before four-six weeks of treatment"}, {"measurement": "responsive patients who considered smell function returned to normal", "setting": "patients with hyposmia [1]; whole study, 34 of 157", "value": 21.7, "unit": "%"}, {"measurement": "increase in H, amyl acetate", "setting": "patients with hyposmia [2]; oral 200 mg", "value": 2, "unit": "%"}, {"measurement": "increase in H, nitrobenzene", "setting": "patients with hyposmia [2]; oral 200 mg", "value": 2, "unit": "%"}, {"measurement": "increase of H value, amyl acetate", "setting": "patients with hyposmia [2]; oral 200 mg, not statistically significant", "value": 50, "unit": "%"}, {"measurement": "change in H (more pleasant), amyl acetate", "setting": "patients with hyposmia [2]; oral 400 mg", "value": 1, "unit": "%"}, {"measurement": "change in H (more pleasant), nitrobenzene", "setting": "patients with hyposmia [2]; oral 400 mg", "value": 4, "unit": "%"}, {"measurement": "change in H, pyridine", "setting": "patients with hyposmia [2]; oral 400 mg", "value": 9, "unit": "%"}, {"measurement": "change in H, thiophene", "setting": "patients with hyposmia [2]; oral 400 mg", "value": 7, "unit": "%"}, {"measurement": "decrease of H value, thiophene", "setting": "patients with hyposmia [2]; oral 400 mg", "value": 40, "unit": "%"}, {"measurement": "hedonic estimation (H), amyl acetate", "setting": "patients with hyposmia [2]; [3]", "value": "3 ± 2^ %"}, {"measurement": "hedonic estimation (H), nitrobenzene", "setting": "patients with hyposmia [2]; [3]", "value": "8 ± 3^a %"}, {"measurement": "hedonic estimation (H), pyridine", "setting": "patients with hyposmia [2]; [3]", "value": "−26 ± 3^b %"}, {"measurement": "hedonic estimation (H), thiophene", "setting": "patients with hyposmia [2]; [3]", "value": "−19 ± 2^d %"}, {"measurement": "increase of H value, nitrobenzene", "setting": "patients with hyposmia [2]; oral 400 mg, not statistically significant", "value": 50, "unit": "%"}, {"measurement": "hedonic estimation (H), amyl acetate", "setting": "patients with hyposmia [2]; [4]", "value": "4 ± 1", "unit": "%"}, {"measurement": "hedonic estimation (H), nitrobenzene", "setting": "patients with hyposmia [2]; [4]", "value": "8 ± 2^d %"}, {"measurement": "hedonic estimation (H), pyridine", "setting": "patients with hyposmia [2]; [4]", "value": "−19 ± 2 ^ %"}, {"measurement": "hedonic estimation (H), thiophene", "setting": "patients with hyposmia [2]; [4]", "value": "−14 ± 2 ^ %"}, {"measurement": "decrease of H value, pyridine", "setting": "patients with hyposmia [2]; oral 800 mg", "value": 55, "unit": "%"}, {"measurement": "decrease of H value, thiophene", "setting": "patients with hyposmia [2]; oral 800 mg", "value": 37, "unit": "%"}, {"measurement": "increase of H value, amyl acetate", "setting": "patients with hyposmia [2]; oral 800 mg", "value": "about 50%"}, {"measurement": "increase of H value, nitrobenzene", "setting": "patients with hyposmia [2]; oral 800 mg", "value": "about 50%"}, {"measurement": "hedonic estimation (H), amyl acetate", "setting": "patients with hyposmia [2]; [5]", "value": "8 ± 5", "unit": "%"}, {"measurement": "hedonic estimation (H), nitrobenzene", "setting": "patients with hyposmia [2]; [5]", "value": "13 ± 7 ^ %"}, {"measurement": "hedonic estimation (H), pyridine", "setting": "patients with hyposmia [2]; [5]", "value": "−22 ± 6", "unit": "%"}, {"measurement": "hedonic estimation (H), thiophene", "setting": "patients with hyposmia [2]; [5]", "value": "−15 ± 4", "unit": "%"}, {"measurement": "hedonic value (row printed R), amyl acetate", "setting": "patients with hyposmia [2]; [6]", "value": "−1 ± 4 ^ %"}, {"measurement": "hedonic value (row printed R), nitrobenzene", "setting": "patients with hyposmia [2]; [6]", "value": "2 ± 2^a %"}, {"measurement": "hedonic value (row printed R), pyridine", "setting": "patients with hyposmia [2]; [6]", "value": "−11 ± 5^a %"}, {"measurement": "hedonic value (row printed R), thiophene", "setting": "patients with hyposmia [2]; [6]", "value": "−4 ± 2^a %"}]}
